Assay results published in patent US10934310B2, “Inhibitors of Bruton's tyrosine kinase and method of their use” (JANSSEN PHARMACEUTICA NV, priority 2015, dated 2021).

What follows are compounds tested against unphosphorylated-BTK kinase domain (UP-BTK), GST-tagged human BTK (389-659aa) (Homo sapiens (Human), UniProt Q06187) (assay: BTK Kinase Lanthascreen Binding Assay). Conditions: Lanthascreen binding, 60 minutes incubation; pIC50 = negative log of the IC50 in molar.
Protocol: BTK Kinase Lanthascreen Binding Assay:
A BTK kinase lanthascreen binding assay monitors compound binding to unphosphorylated-BTK kinase domain (UP-BTK), by competing with a fluorescent labeled tracer. […] Data were analyzed using Xlfit™ version 5.3 from ID Business Solutions (Guildford), Microsoft Excel add-in. pIC50 refers to the negative log of the IC50 in molar.

Sequence of unphosphorylated-BTK kinase domain (UP-BTK), GST-tagged human BTK (389-659aa) (Q06187 389-659): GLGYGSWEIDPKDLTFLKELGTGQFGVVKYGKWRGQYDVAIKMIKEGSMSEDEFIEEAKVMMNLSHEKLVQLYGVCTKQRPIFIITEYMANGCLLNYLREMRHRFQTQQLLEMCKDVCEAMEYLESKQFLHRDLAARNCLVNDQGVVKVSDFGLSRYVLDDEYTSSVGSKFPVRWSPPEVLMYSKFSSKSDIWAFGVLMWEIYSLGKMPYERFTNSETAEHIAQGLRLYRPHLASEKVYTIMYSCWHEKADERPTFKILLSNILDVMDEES

Compared with `C=CC(=O)N[C@@H]1CCC[C@H]1NC(=O)c1sc2nccc3c2c1NC(=O)N3c1ccc(Oc2ccccc2)nc1C` (single isomer, unassigned) [Example 301, N-((1R,2R)-2-Acrylamidocyclopentyl)-5-(*S)-(2-methyl-6-phenoxypyridin-3-yl)-4-oxo-4,5-dihydro-3H-1-thia-3,5,8-triazaacenaphthylene-2-carboxamide], `C=CC(=O)N[C@H]1CCCC[C@H]1NC(=O)c1sc2nccc3c2c1NC(=O)N3c1ccc(Oc2ccccc2)nc1C` (single isomer, unassigned) [Example 303, N-((1R,2S)-2-Acrylamidocyclohexyl)-5-(*S)-(2-methyl-6-phenoxypyridin-3-yl)-4-oxo-4,5-dihydro-3H-1-thia-3,5,8-triazaacenaphthylene-2-carboxamide] is higher in “BTK_I_binding pIC50” value: 7.97 for the first, 8.40 for the second.

`C=CC(=O)N[C@H]1CCC[C@H]1NC(=O)c1sc2nccc3c2c1NC(=O)N3c1ccc(OC2CCOCC2)cc1C` (single isomer, unassigned) [Example 304, N-((1R,2S)-2-Acrylamidocyclopentyl)-5-(*S)-(2-methyl-4-((tetrahydro-2H-pyran-4-yl)oxy)phenyl)-4-oxo-4,5-dihydro-3H-1-thia-3,5,8-triazaacenaphthylene-2-carboxamide] and `C=CC(=O)N[C@@H]1CCC[C@H]1NC(=O)c1sc2nccc3c2c1NC(=O)N3c1ccc(OC(C)C)cc1C` (single isomer, unassigned) [Example 316, N-((1R,2R)-2-Acrylamidocyclopentyl)-5-(*S)-(4-isopropoxy-2-methylphenyl)-4-oxo-4,5-dihydro-3H-1-thia-3,5,8-triazaacenaphthylene-2-carboxamide] are within 0.2 log units of each other in “BTK_I_binding pIC50” value: 7.48 for the first, 7.33 for the second.

Compared with `C=CC(=O)N[C@H]1CC[C@H](NC(=O)c2sc3nccc4c3c2NC(=O)N4c2cnc(Oc3ccccc3)cc2C)C1` (single isomer, unassigned) [Example 306, N-((1*S,3*S)-3-Acrylamidocyclopentyl)-5-(*S)-(4-methyl-6-phenoxypyridin-3-yl)-4-oxo-4,5-dihydro-3H-1-thia-3,5,8-triazaacenaphthylene-2-carboxamide], `C=CC(=O)N[C@H]1CCC[C@H](NC(=O)c2sc3nccc4c3c2NC(=O)N4c2cnc(Oc3ccccc3)cc2C)C1` (single isomer, unassigned) [Example 308, N-((1*S,3*S)-3-Acrylamidocyclohexyl)-5-(*S)-(4-methyl-6-phenoxypyridin-3-yl)-4-oxo-4,5-dihydro-3H-1-thia-3,5,8-triazaacenaphthylene-2-carboxamide] is lower in “BTK_I_binding pIC50” value: 8.04 for the first, 7.78 for the second.

`C=CC(=O)N[C@H]1CCCC[C@H]1NC(=O)c1sc2nccc3c2c1NC(=O)N3c1cnc(OC2CCCC2)cc1C` (single isomer, unassigned) [Example 309, N-((1R,2S)-2-Acrylamidocyclohexyl)-5-(*S)-(6-(cyclopentyloxy)-4-methylpyridin-3-yl)-4-oxo-4,5-dihydro-3H-1-thia-3,5,8-triazaacenaphthylene-2-carboxamide] and `C=CC(=O)N[C@H]1CCCC[C@H]1NC(=O)c1sc2nccc3c2c1NC(=O)N3c1cnc(OCC(C)C)cc1C` (single isomer, unassigned) [Example 312, N-((1R,2S)-2-Acrylamidocyclohexyl)-5-(*S)-(6-isobutoxy-4-methylpyridin-3-yl)-4-oxo-4,5-dihydro-3H-1-thia-3,5,8-triazaacenaphthylene-2-carboxamide] are within 0.2 log units of each other in “BTK_I_binding pIC50” value: 7.91 for the first, 8.01 for the second.

Going from `C=CC(=O)N[C@@H]1CC[C@H](NC(=O)c2sc3nccc4c3c2NC(=O)N4c2ccc(Oc3ccccc3)cn2)C1` (single isomer, unassigned) [Example 313] to `C=CC(=O)N[C@H]1CCC[C@H](NC(=O)c2sc3nccc4c3c2NC(=O)N4c2ccc(Oc3ccccc3)cn2)C1` (single isomer, unassigned) [Example 315, N-((1*S,3*S)-3-Acrylamidocyclohexyl)-4-oxo-5-(5-phenoxypyridin-2-yl)-4,5-dihydro-3H-1-thia-3,5,8-triazaacenaphthylene-2-carboxamide], the “BTK_I_binding pIC50” value falls from 7.83 to 7.50.

First: Cc1nc(Oc2ccccc2)ccc1N1C(=O)Nc2c(C(=O)N[C@@H]3CCC[C@@H]3N)sc3nccc1c23 (single isomer, unassigned) [Example 318, N-((1*R,2*S)-2-Aminocyclopentyl)-5-(*S)-(2-methyl-6-phenoxypyridin-3-yl)-4-oxo-4,5-dihydro-3H-1-thia-3,5,8-triazaacenaphthylene-2-carboxamide]
Second: C=CC(=O)N[C@H]1CC[C@H](NC(=O)c2sc3nccc4c3c2NC(=O)N4c2ccc(Oc3ccccc3)nc2)C1 (single isomer, unassigned) [Example 321, N-((1*S,3*S)-3-Acrylamidocyclopentyl)-4-oxo-5-(6-phenoxypyridin-3-yl)-4,5-dihydro-3H-1-thia-3,5,8-triazaacenaphthylene-2-carboxamide]
The “BTK_I_binding pIC50” value of the first is lower: 6.46 for the first, 7.71 for the second.

Same assay, conditions: compound, 50 nM Tracer 236, 2 nM anti-GST antibody, 60 minutes; pIC50 = negative log of the IC50 in molar

`Cc1cc(Oc2ccccc2)ncc1N1C(=O)Nc2c(C(=O)N[C@@H]3CCCC[C@H]3N)sc3nccc1c23` (single isomer, unassigned) [Example 255, N-((1R,2R)-2-Aminocyclohexyl)-5-(*S)-(4-methyl-6-phenoxypyridin-3-yl)-4-oxo-4,5-dihydro-3H-1-thia-3,5,8-triazaacenaphthylene-2-carboxamide] and `Cc1nc(Oc2ccccc2)ncc1N1C(=O)Nc2c(C(=O)N[C@@H]3CCC[C@H]3N)sc3nccc1c23` (single isomer, unassigned) [Example 256, N-((1R,2R)-2-Aminocyclopentyl)-5-(*S)-(4-methyl-2-phenoxypyrimidin-5-yl)-4-oxo-4,5-dihydro-3H-1-thia-3,5,8-triazaacenaphthylene-2-carboxamide] are within 0.2 log units of each other in “BTK_I_binding pIC50” value: 6.51 for the first, 6.48 for the second.

`Cc1cc(Oc2ccccc2)ccc1N1C(=O)Nc2c(C(=O)N[C@H]3CC[C@H](N)C3)sc3nccc1c23` (single isomer, unassigned) [Example 259, N-((1S,3S)-3-Aminocyclopentyl)-5-(*S)-(2-methyl-4-phenoxyphenyl)-4-oxo-4,5-dihydro-3H-1-thia-3,5,8-triazaacenaphthylene-2-carboxamide] and `Cc1cc(Oc2ccccc2)ccc1N1C(=O)Nc2c(C(=O)N[C@@H]3CCC[C@H](N)C3)sc3nccc1c23` (single isomer, unassigned) [Example 261, N-((1R,3S)-3-Aminocyclohexyl)-5-(*S)-(2-methyl-4-phenoxyphenyl)-4-oxo-4,5-dihydro-3H-1-thia-3,5,8-triazaacenaphthylene-2-carboxamide] are within 0.2 log units of each other in “BTK_I_binding pIC50” value: 6.45 for the first, 6.42 for the second.

`Cc1cc(OC(C)C)ccc1N1C(=O)Nc2c(C(=O)N[C@@H]3CCC[C@@H]3N)sc3nccc1c23` (single isomer, unassigned) [Example 262, N-((1R,2S)-2-Aminocyclopentyl)-5-(*R)-(4-isopropoxy-2-methylphenyl)-4-oxo-4,5-dihydro-3H-1-thia-3,5,8-triazaacenaphthylene-2-carboxamide] and `C=CC(=O)N[C@@H]1CCCC[C@H]1NC(=O)c1sc2nccc3c2c1NC(=O)N3c1ccc(OC(C)C)cc1C` (single isomer, unassigned) [Example 264, N-((1R,2R)-2-Acrylamidocyclohexyl)-5-(*R)-(4-isopropoxy-2-methylphenyl)-4-oxo-4,5-dihydro-3H-1-thia-3,5,8-triazaacenaphthylene-2-carboxamide] are within 0.2 log units of each other in “BTK_I_binding pIC50” value: 6.39 for the first, 6.26 for the second.

With `C=CC(=O)N[C@H]1CCCC[C@H]1NC(=O)c1sc2nccc3c2c1NC(=O)N3c1cnc(OC2CCC2)cc1C` (single isomer, unassigned) [Example 266, N-((1R,2S)-2-Acrylamidocyclohexyl)-5-(*R)-(6-cyclobutoxy-4-methylpyridin-3-yl)-4-oxo-4,5-dihydro-3H-1-thia-3,5,8-triazaacenaphthylene-2-carboxamide] the “BTK_I_binding pIC50” value was 6.21.

Same assay, conditions: read-out: BTK_I_binding pIC50 (converted)

`C=CC(=O)N[C@H]1CCCC[C@@H]1NC(=O)c1sc2nccc3c2c1NC(=O)N3c1ccc(OC(C)C)cc1C` (single isomer, unassigned) [Example 272, N-((1S,2S)-2-Acrylamidocyclohexyl)-5-(*R)-(4-isopropoxy-2-methylphenyl)-4-oxo-4,5-dihydro-3H-1-thia-3,5,8-triazaacenaphthylene-2-carboxamide] and `C=CC(=O)N[C@@H]1CCCC[C@H]1NC(=O)c1sc2nccc3c2c1NC(=O)N3c1ccc(OC(C)C)cc1C` (single isomer, unassigned) [Example 273, N-((1R,2R)-2-Acrylamidocyclohexyl)-5-(*S)-(4-isopropoxy-2-methylphenyl)-4-oxo-4,5-dihydro-3H-1-thia-3,5,8-triazaacenaphthylene-2-carboxamide] cannot be ordered by IC50: > 1000 nM for the first, > 1000 nM for the second.

`C=CC(=O)N[C@H]1CCC[C@H](NC(=O)c2sc3nccc4c3c2NC(=O)N4c2ccc(OC(C)C)cc2C)C1` (single isomer, unassigned) [Example 274, N-((1S, S)-3-Acrylamidocyclohexyl)-5-(*R)-(4-isopropoxy-2-methylphenyl)-4-oxo-4,5-dihydro-3H-1-thia-3,5,8-triazaacenaphthylene-2-carboxamide] and `C=CC(=O)N[C@H]1CCC[C@@H](NC(=O)c2sc3nccc4c3c2NC(=O)N4c2ccc(OC(C)C)cc2C)C1` (single isomer, unassigned) [Example 275, N-((1R,3S)-3-Acrylamidocyclohexyl)-5-(*R)-(4-isopropoxy-2-methylphenyl)-4-oxo-4,5-dihydro-3H-1-thia-3,5,8-triazaacenaphthylene-2-carboxamide] cannot be ordered by IC50: > 1000 nM for the first, > 1000 nM for the second.

In the case of `C=CC(=O)N[C@H]1CC[C@@H](NC(=O)c2sc3nccc4c3c2NC(=O)N4c2ccc(OC(C)C)cc2C)C1` (single isomer, unassigned) [Example 276, N-((1R,3S)-3-Acrylamidocyclopentyl)-5-(*R)-(4-isopropoxy-2-methylphenyl)-4-oxo-4,5-dihydro-3H-1-thia-3,5,8-triazaacenaphthylene-2-carboxamide], the IC50 is reported as > 1000 nM.
